Key:
Complex soil microbiome = experiment: Crystal violet biofilm biomass, MeJA chemical analogs; type: cell-based; details: 20 hrs
Protocol: Complex soil microbiome was treated with various MeJA chemical analogs over 20 hrs and stained with CV. The full chemical name of the chemical analogs are as follows: DHJ: Dihydro jasmonic acid; MDHJ: Methyl dihydro jasmonate; MJ: Methyl jasmonate; MO: Methyl octanoate.
This method was used to get a proxy for biofilm biomass. Briefly, planktonic cells were discarded. 50 μL of 0.1% CV solution was added to the well very gently. The biofilm was stained for 10 minutes. The dye was removed gently. 100 μL of PBS was added to the well to wash off the excess CV. PBS was removed, and the wells were left to dry overnight. The next day, 200 ul of 1% SDS was added to each well and was resuspended vigorously with a pipette. After 20 minutes, 20 ul from the top suspension was removed and added to a new 96-well plate. The well was diluted with 180 ul of water and absorbance was checked at 595 nm on a spectrophotometer.
To identify the potential functional group of MeJA for its biofilm-inducing property, several jasmonic acid analogues were screened for their biofilm-inducing capability in the soil microbiome. The analogues were used to study biofilm induction in both complex soil microbiomes (FIG. 8).

[1] = system: soil microbiota biofilms (extracellular matrix proteins); experiment: Live confocal imaging of biofilm matrix formation (SYPRO Ruby, 3D biovolume); type: cell-based
Protocol: (§1) 5 g of JIFFY soil substrate was resuspended in 20 ml of PBS. This suspension was vortexed for 4 minutes and sonicated for 1 minute. It was then filtered through a strainer. The slurry that didn't pass through the strainer was again resuspended in 20 ml of PBS medium and subsequent steps were repeated twice. The filtrate was then centrifuged at 150G for 2 minutes to settle large soil particles and the supernatant was decanted into another tube. This supernatant was then centrifuged at 5500G for 5 minutes to obtain a bacterial pellet. This pellet was resuspended in 20 ml of soil extract medium. This suspension was referred to as “soil microbiota inoculum”. The final concentration in all inocula was around 1×10^8 bacteria per ml as quantified by Baclight bacterial counting kit (flow cytometry) or manual counting with a hemocytometer.
(§2) For the confocal imaging experiments, soil inoculum was enriched in soil extract media overnight at 37° C.
(§3) Soil microbiota inoculum was prepared as described in the section above. MeJA was added to the microbiota to achieve the desired concentration (0, 1, 5, 25 nM for nucleic acid imaging experiment, and 0 and 5 nM for matrix imaging experiment). […] 50 µL of SYTO™9 (Thermo cat. no. S34854) solution (final concentration of 5 μM) was also added to all the wells. For matrix imaging, FilmTracer™ SYPRO™ Ruby Biofilm Matrix Stain (Thermo, cat. no. F10318) was added instead (ready to use, 1×concentration). For live imaging, Zeiss LSM 900 with Airyscan (Definite Focus 2) was used and images were acquired every 30 minutes for 24 hours with 65×oil objective at the NUS Centre for Bioimaging Science (CBIS). For both the dyes (separate experiments), a 488 nm laser was used.
(§4) Image analysis was performed using BiofilmQ software ([…]). Images were aligned along the Z-axis and along time. 2-class Otsu thresholding was used to detect the signal against the background. Sensitivity was set based on thresholding feedback. The rest of the settings were kept at default. Biofilm-related global properties were calculated and exported. We mainly focused on the 3D biovolume of our samples. Linear mixed-effects were used to model the biovolume where time, treatment, and their interaction were the fixed effects, and every sample was considered a random effect (Table 1 and Table 2). Following packages from R were used: nlme (Pinheiro, J. et al., R package version 3.1-153 (2021)), ggplot2 (Wickham, H., Wiley Interdiscip. Rev. Comput. Stat. 3, 180-185 (2011)).

[2] = system: soil microbiota biofilm community; experiment: 16S rRNA gene amplicon quantitative microbiome profiling of VOC-exposed biofilm communities; details: 16 and 24 hours
Protocol: Using the push-pull airflow system, soil microbiota inoculum was exposed to four VOC treatments 1) soil VOCs; 2) WT Arabidopis rVOCs; 3) jmt Arabidopsis rVOCs; 4) jmt Arabidopsis rVOCs+MeJA. Biofilm and planktonic parts of the samples were collected from 28 wells after 16 and 24 hours and stored at −80° C. The collective sample from 28 wells was treated as a single experimental replicate. The whole experiment was repeated eight times.
Biofilm was scraped at specific timepoints and resuspended in PBS solution. DNA-RNA shield was added in 1:1 proportion and samples were stored at −80 C. Zymobiomics DNA miniprep kit was used to isolate DNA from the samples based on their protocol. 16S V4-V5 region was amplified using 515F-Y and 927R primers (Walters et al., mSystems 1 (2016)). 20 µL of reaction contained 2 μL of 10×DreamTaq buffer, 2 μL of 2 mM dNTP mix, 0.5 μL of each primer (10 µM), 0.5 μL of DreamTaq polymerase (5U/μL), 10 ng of template DNA, and molecular grade water to make up the volume. PCR conditions were as follows: initial denaturation at 95° C. for 3 minutes, 35 cycles of denaturation at 95° C. for 45 s, annealing at 50° C. for 45 s, extension at 68° C. for 90 s and final extension at 68° C. for 5 minutes. PCR products were purified with a Genejet PCR purification kit. Amplicon concentration was measured using Qubit DNA BR Kit and Qubit fluorometer. 16S amplicons were submitted for next-gen sequencing on Illumina MiSeq V3 Run (300 base pairs paired-end) at Singapore Centre for Life Science Engineering (SCELSE). Rarefaction analysis was performed to calculate appropriate depth for sequencing (FIG. 17B).
To enumerate the 16S rRNA gene copy numbers, the primer pair 515F and 806R (Walters, W. et al., MSystems 1, (2016)) were used in qPCR to amplify the 16S gene using Applied Biosystem real-time PCR system. The PCR assay mixture consists of 10 ul of PowerUp™ SYBR™ Green Master Mix, 1 ul of each primer from 10 µM stock, 1 ul of DNA of extracted DNA from the microbial population, and 7 ul of sterile nuclease-free water. The PCR amplification program encompassed an initial denaturation step at 95° C. for 3 min followed by 40 three-step cycles at 95° C. for 30 s, at 52° C. for 30 s and 72° C. for 30 s. Plasmid with the fragments of 16S rRNA gene part amplified with same primer pair was taken as standard for creating standard curve with known copy number for absolute quantification. Pearson correlation was calculated for the qPCR-derived copy number and the DNA yield from all the samples (FIG. 17D).
Raw and demultiplexed sequencing data was analysed as follows (also described in a flowchart in FIG. 17A): Primer and adapter sequences were removed using cutadapt (Martin, M., EMBnet.journal 17, 10-12 (2011)). […]

soil microbiota [3] = experiment: Live confocal imaging of soil microbiota biofilm formation (SYTO9 nucleic acid stain, 3D biovolume); type: cell-based
Protocol: as §1, §2, §3, §4

soil microbiota [4] = experiment: Crystal violet biofilm biomass in push-pull dynamic system; type: cell-based; details: 5, 25 and 50 μmol MeJA spiked in soil chamber
Protocol: as §1
This system consists of an aerator/pump (to push air), 5 μm charcoal filter (to adsorb gaseous impurities), 0.22 μm filter (to trap microbial contamination), gas wash bottle (to moisturize the air), a source chamber (to host the source of volatiles), recipient chamber (to receive volatiles) and vacuum pump (to pull the air out) (FIG. 1D). […]
This method was used to get a proxy for biofilm biomass. […] The well was diluted with 180 ul of water and absorbance was checked at 595 nm on a spectrophotometer.

soil microbiome = experiment: Biofilm induction by liquid MeJA concentration range; type: cell-based; details: pure liquid MeJA
Protocol: Biofilm induction of the soil microbiome was tested with several concentrations of pure MeJA at the nanomolar level. It was confirmed that a concentration range from […] of MeJA was effective to induce biofilms without being detrimental to plant growth.

[5] = system: microbial isolates from MeJA-induced complex biofilms; experiment: Biofilm assay of monoculture strains isolated from MeJA-induced biofilms; type: cell-based; details: 5 nM MeJA, crystal violet after 24 hours
Protocol: Complex microbiota biofilm exposed to volatile MeJA was scraped off and resuspended in PBS. Through serial dilution, this inoculum was plated on soil extract agar, minimal media agar, and LB agar. Colonies with unique morphology were picked and streaked onto a fresh LB plate to acquire single colonies. The isolated strains were identified using Sanger sequencing of the PCR product with primers 27F and […]. Their biofilm response to volatile MeJA was tested using “push-pull” setup (as described above for complex biofilms). Their response to soluble MeJA was tested by directly adding MeJA to the monoculture inoculum (final concentration of 5 nM). For both assays, biofilms were stained with crystal violet and quantified after 24 hours as explained in the biofilm staining protocol. The initial OD of the inoculum was 0.2.

[6] = 5 nM MeJA, time-treatment interaction

CCCCCC1C(=O)CCC1CC(=O)O (stereo not shown) [DHJ, Dihydro jasmonic acid]
potential for biofilm induction among jasmonic acid analogues (Complex soil microbiome): highest potential for biofilm induction

CC/C=C\CC1=C(C)CCC1=O [Cis-jasmone, cis-jasmone]
potential for biofilm induction among jasmonic acid analogues (Complex soil microbiome): highest potential for biofilm induction

CC/C=C\CC1C(=O)CCC1CC(=O)OC (stereo not shown) [MeJA, Methyl jasmonate]
time from which MeJA influence appeared in the matrix ([1]; 5 nM MeJA): ≥ 7 h
effect on biofilm matrix ([1]; 5 nM MeJA vs non-treated biofilm): promoted biofilm matrix compared to non-treated biofilm
Linear mixed-effects model Value, Treatment5 (matrix Biovolume) ([1]; 5 nM MeJA, SYPRO Ruby): 294.3537
Linear mixed-effects model Value, Hours: Treatment5 (matrix Biovolume) [1, 6]: 11.25
share of biofilm community with significant shift in abundance ([2]; WT rVOCs vs soil VOCs, MeJA: jmt+MeJA vs jmt rVOCs): ~10%
number of promoted ASVs ([2]; vs respective control): 21 ASVs
number of repressed ASVs ([2]; vs respective control): 82 ASVs
number of responding ASVs ([2]; vs respective control): 103 ASVs
Linear mixed-effects model Value, Treatment1 nM (Biovolume) (soil microbiota [3]; 1 nM MeJA, SYTO9, imaging over 24 hours): −988.35
Linear mixed-effects model Value, Hours: Treatment1 nM (Biovolume) (soil microbiota [3]; 1 nM MeJA, time-treatment interaction): 106.209
time from which biovolumes differed (soil microbiota [3]; 5 nM MeJA): ≥ 15 h
interaction of time and treatment in mixed-effects model (soil microbiota [3]; 5 nM MeJA vs non-treated biofilms): statistically significant
biofilm growth trajectory (biovolume) (soil microbiota [3]; 5 nM MeJA, 0 to 24 hours, vs control): increasingly higher biofilm growth trajectory compared to the control
Linear mixed-effects model Value, Treatment5 nM (Biovolume) (soil microbiota [3]; 5 nM MeJA, SYTO9, imaging over 24 hours): −453.513
Linear mixed-effects model Value, Hours: Treatment5 nM (Biovolume) (soil microbiota [3]; [6]): 102.9409
Linear mixed-effects model Value, Treatment25 nM (Biovolume) (soil microbiota [3]; 25 nM MeJA, SYTO9, imaging over 24 hours): −1245.62
Linear mixed-effects model Value, Hours: Treatment25 nM (Biovolume) (soil microbiota [3]; 25 nM MeJA, time-treatment interaction): 90.7811
potency in biofilm promotion, volatile form (soil microbiota [4]): higher at low concentrations (5 μmol) and gradually declined in a dose-dependent manner
concentration effective to induce biofilms without being detrimental to plant growth (soil microbiome): ≥ 500 nM
strains MeJA-responsive in biofilm formation, of nine tested [5]: six
